In patent publication US20260242768A1, “ACETYL-COENZYME A CARBOXYLASE MUTANTS” (CIBUS US LLC, priority 2023, published 2026):

Experiments:
[1] = system: D2078G/P2083T edited rice line; assay type: in vivo, Oryza sativa; conditions: all clethodim spray rates, nine environments
Text: The clethodim herbicide chosen contained 2.0 pounds active ingredient per gallon. Using a randomized completed block design with three replicates, four clethodim spray rates (5.76, 8.30, 12.10 and 16.00 fluid ounces per acre) were compared to an untreated control (“UTC”). Phytotoxicity rates to access crop response were visually scored (7) seven, (14) fourteen and (28) twenty-eight days after clethodim application (“DAA”) using a 0-100% percentage chlorosis scale. All plots were maintained weed free using additional herbicides tolerant by all rice lines. Yield was collected using a research plot combine to harvest the small plot, and yields were standardized to 12.5% moisture before being converted to a percentage of the untreated control.

[2] = system: D2078G/P2083T line; assay type: in vivo, Oryza sativa; conditions: sprayed with clethodim
Text: (§1) The results of herbicide rate tolerance field trials of the D2078G/P2083T line can be seen below in Table 11. The edited plants were sprayed with clethodim, and plant injury was visually scored at (7) seven, (14) fourteen, and (28) days after application of the herbicide (“DAA”) on a 0-100% percentage scale for chlorosis of newest leaf-tips and growing points.

[3] = system: O. sativa ACCase; experiment: Growth of Saccharomyces cerevisiae pseudodiploid acc1Δ strains carrying wild-type or mutant OsACCase plasmids, streaked onto plates with increasing concentrations of clethodim (Examples 5, 7, 10; Tables 8, 12); assay type: cell-based, Oryza sativa; design: key to growth, 0 mM clethodim / growth, 0.025 mM clethodim / growth, 0.1 mM clethodim / growth, 0.25 mM clethodim / growth, 0.5 mM clethodim / growth, 1 mM clethodim: ++ = Strong growth; + = Poor growth; − = No growth; conditions: Table 12, galactose 0.01%
Text: Mutations at position N2097S and V2098A were combined to determine if point mutations at both positions gave increased resistance compared to either single point mutation. Each of these respective mutations (N2097S, V2098A and N2097S/V2098A) were generated by standard methods and introduced into a Saccharomyces cerevisiae pseudodiploid acc1Δ strain with a plasmid containing wild-type O. sativa ACCase gene. Once each of these mutations were introduced by recombination mediated mutagenesis, the OsACCase wild-type plasmid was removed, and mutation strains were confirmed by sequencing. The three strains, along with a series of controls including a WT strain (negative control), an I1781L mutant strain, and a D2078G mutant strain (positive control), were streaked onto plates with increasing concentrations of clethodim. […] These observations argue that N2097S is an enhancer of V2098A tolerance.
Edits at position S1784N and A1785G were combined to determine if point mutations at both of these two positions gave increased resistance compared to either single point mutation. Each of these respective mutations (S1784N, A1785G and S1784N/A1785G) were generated by standard methods and introduced into a Saccharomyces cerevisiae pseudodiploid acc1Δ strain with a plasmid containing wild-type O. sativa ACCase gene. Once each of these mutations were introduced by recombination mediated mutagenesis, the OsACCase wild-type plasmid was removed, and mutation strains were confirmed by sequencing. The three strains, along with a series of controls including a WT strain (negative control), an I1781L mutant strain, a D2078G mutant strain (positive control), and a V2075L mutant strain were streaked onto plates with increasing concentrations of clethodim.
Each of these respective mutations (D2078G, P2083T, D2078G/P2083T) were generated by standard methods and introduced into a Saccharomyces cerevisiae pseudodiploid acc14 strain with a plasmid containing the wild-type O. sativa ACCase gene. Once plasmids bearing each of these mutations, introduced using recombination-mediated mutagenesis, the OsACCase wild-type plasmid was removed, and strains bearing each mutant plasmid were confirmed by sequencing. The three strains, along with a series of controls including a wild-type strain (negative control), an I1781L mutant strain (medium control), and a pre-existing D2078G mutant strain (positive control) were streaked onto plates with increasing concentrations of clethodim.

[4] = system: rice Oryza sativa; experiment: Regenerated edited rice shoots established in soil, greenhouse: plant growth, herbicide tolerance, fertility (Example 9); assay type: in vivo
Text: The D2078G mutation was introduced into a native rice Oryza sativa ACCase gene utilizing PEG delivery of CRISPR-Cas and GRONs into protoplasts. Examples of target spacer sequences for sgRNA targeting the rice ACCase gene are shown, but not limited to, those listed in the below Table 9. Sequence information for exemplary GRONs is shown, but not limited to those listed in the below Table 10. Rice protoplasts were isolated from cell suspension cultures initiated from Cypress mature seed-derived embryogenic calli. A non-coding D2078G GRON with RNP (CRISPR-Cas9 protein plus gRNA complex) was introduced into rice protoplasts using PEG-mediated delivery method. Following PEG treatment, protoplasts were cultured in liquid medium and kept stationary in the dark at 26±2° C. for 2 weeks. After 2 weeks, culture plates were gently scraped to release the divided protoplasts from the bottom of the plates and added equal volume of fresh liquid medium. These cultures were transferred on a rotatory shaker and incubated in the dark at 26±2° C. […]
as §1

[5] = system: rice (Oryza sativa) plastidal ACCase; experiment: Clethodim tolerance of rice ACCase mutations, yeast complementation assay (Examples 1-3); assay type: cell-based
Text: Joachimiak M. et al Proc Natl Acad Sci U.S.A. 1997 Sep. 2; 94 (18): 9990-5 and WO/2013/074524 and WO/2013/074524 each describe methods to complement a yeast (Saccharomyces cerevisiae) strain lacking the native acc1 gene with either a wt or mutated form of a chimeric plastidal ACCase gene from a plant such as rice (Oryza sativa). Methods to introduce one or more mutations listed herein into the chimeric ACCase gene and subsequently complement the acc1 lacking yeast strain are well known by an individual skilled in the art. In the art assays are known for measuring tolerance of a mutated plant ACCase gene versus a herbicide that is a member of the aryloxyphenoxypropanoate, cyclohexanedione, and/or phenylpyrazoline families of herbicides such as clethodim, sethoxydim, fluazifop, haloxyfop, quizalofop, and pinoxaden (Joachimiak M. et al Proc Natl Acad Sci U.S.A. 1997 Sep. 2; 94 (18): 9990-5 and WO/2013/074524).
A library of random mutations in the rice (Oryza sativa) plastidal ACCase gene was generated and screened for clethodim tolerant clones using a yeast complementation assay.

[6] = Cha et al., Pesticide Biochemistry and Physiology 111 (2014) 7-13; cited from earlier work

Row | Substance | plant injury [1] | yield [1] | meristem necrosis [2] | yield ([2]; compared to the untreated control plants) | plant injury ([2]; visually scored 7, 14, 28 DAA) | growth, 0 mM clethodim ([3]; plate with 0 mM clethodim) | growth, 0.025 mM clethodim ([3]; plate with 0.025 mM clethodim) | growth, 0.1 mM clethodim ([3]; plate with 0.1 mM clethodim) | growth, 0.25 mM clethodim ([3]; plate with 0.25 mM clethodim) | growth, 0.5 mM clethodim ([3]; plate with 0.5 mM clethodim) | growth, 1 mM clethodim ([3]; plate with 1 mM clethodim) | herbicide tolerance [4] | clethodim tolerance ([5]; ACCase mutation tested with the herbicide clethodim) | effect on clethodim tolerance when combined with D2078G, V2075L or V2098A ([5]; combined with either D2078G, V2075L or V2098A) | tolerance to the fluazifop herbicide [6]
1 | D2078G/P2083T: double mutant ACCase; yeast strain and edited rice line | low plant injury | good yield | limited meristem necrosis except at the highest rates of herbicide application | increased yield | low plant injury | ++ | ++ | ++ | ++ | ++ | + | herbicide tolerance | – | – | –
2 | N2097D: mutated ACCase, numbering per SEQ ID NO: 2 | – | – | – | – | – | – | – | – | – | – | – | – | neither the N2097S nor the N2097D single mutations provide detectable clethodim tolerance | produces opposing results | associated with tolerance to the fluazifop herbicide
